In patent US8883841B2, “Oncogenic ras-specific cytotoxic compound and methods of use thereof” (The Board of Regents of the University of Texas System, priority 2005, dated 2014):
“Also recorded” adds a separate entry of the source. Where two headings read alike, the source gives them in different places.

Tests used:
caspase-3 and caspase-8 = test: Western blot for cleavage/activation of caspase-3 and caspase-8 in H460 cells; format: cell-based, human; details: 1 μM, 6 to 24 h, listed as Oncrasin-1
Protocol: Apoptosis induction in H460 cells was also analyzed. H460 cells were treated with 1 μM of Oncrasin-1 for 6 to 24 h. Cells treated with DMSO were used as controls. The cell lysates were then used for a western blot assay to detect the cleavage of caspase-3 and caspase-8. […] After treatment with Oncrasin-1, the expression of some molecules involved in Ras signaling pathways was also evaluated. […] Active Raf-1 can be translocated to mitochondria where it executes antiapoptosis signaling by interaction with Bad or other protein substrates. Raf-1 is also a pivotal regulator of endothelial cell survival during angiogenesis. Ablation of Raf-1 renders cells hypersensitive to apoptosis despite normal regulation of extracellular signal-regulated kinases. Thus, it is possible to induce antitumor activity by suppressing raf-1.
Induction of apoptosis by Oncrasin. Many antitumor therapies act by inducing apoptosis in tumor cells (Fisher, 1994; Thompson, 1995). To determine whether the antitumor activity of Oncrasin-1 is due to the suppression of cell proliferation or to cell killing, T29, T29Kt1, and H460 cells were stained with annexin V/propidium iodide (PI) after treatment with Oncrasin-1 at 30 μM (for T29 or T29Kt1 cells) or 3 μM (for H460 cells). […]

[1] = tested on: PKCiota knockdown T29Kt1 cells; test: Cell viability in stable PKCiota knockdown T29Kt1 cells; format: cell-based, human
Protocol: Knockdown of PKCiota suppressed Oncrasin-mediated apoptosis and cytotoxicity. To investigate possible role of PCKiota in Oncrasin-1 mediated cytotoxicity, PKCiota was knocked down in H460 cells by using oligo ribonucleotides. H460 cells were treated with 200 pM PKCiota siRNA for 24 h, and then with DMSO or 1 μM Oncrasin for another 12 h. After that, cells harvested for analysis of apoptosis by fluorescence-activated cell sorting (FACS) and for expression of PKCiota by Western blot analysis. […] To further study the effect of atypical PKC in Oncrasin-induced cytotoxicity, the inventors obtained plasmids encoding PKCiota and PKCzeta siRNA from Origene Corporation and made stable PKCiota and PKCzeta knockdown T29Kt1 cells. […] The IC50 in PKCiota knockdown T29Kt1 cells were 100 fold higher than parental T29K cells. […] Thus, compounds with synthetic lethality for PKCiota might be useful for treatment of those cancers.

[2] = tested on: TNFα-induced NFκB activation; test: NFκB reporter plasmid (pNFκB-Luc) luciferase assay in T29Kt1 cells; format: cell-based, human; details: 10 μM, TNFα 1 ng/ml, 8 h
Protocol: FIGS. 11A-11C Suppression of TNFα-induced NFκB activation. NKκB reporter plasmid assay. T29K cells were transfected with pNFκB-Luc and pCMV-lacZ. 12 h later, the cells were treated with TNFα (1 ng/ml) with or without (FIG. 11A) Oncrasin-1 (10 μM) or (FIG. 11B) Sulindac (10 μm). The luciferase activity was determined at 8 h after the treatment and normalized with beta-gal activity. (FIG. 11C) H460 and T29K cells were treated with DMSO or different concentrations of Oncrasin-1 as indicated for 12 h, with or without TNFα (1 ng/ml). The NFκB activity was analyzed by EMSA.
Suppression of NFκB. In a separated study, the effect of Oncrasin compounds on NF-κB activity was assessed. Nuclear factor-κB (NF-κB)/Rel represents a group of structurally related and evolutionarily conserved transcriptional factors that play critical roles in chronic and acute inflammatory diseases, autoimmune diseases and various type of cancers (Karin and Neriah, 2000; Karin and Karin, 2006; Barnes et al., 1997). In unstimulated cells, most NF-κB/Rel dimers are bound to IκBs and retained in the cytoplasm. Upon a various stimulations, IκBs are phosphorylated and rapidly degraded, releasing NF-κB, which then enters the nucleus and executes transcriptional functions. […] The luciferase activity was determined and normalized for transfection with beta-galactosidase activity. […]

[3] = tested on: RNA transcription (HeLa cell nuclear extracts); test: In vitro transcription assay with HeLa nuclear extracts; format: biochemical
Protocol: FIGS. 16A and 16B Effect on RNA processing machinary. (FIG. 16A) T29, T29Kt1, and H460 cells were treated with 10 μM Oncrasin-1 (T29 and T29Kt1) or 1 μM Oncrasin-1 (H460). Twelve hours later, cells were harvested for Western blot analysis for phosphorylation of RNA polymerase II and SR proteins. Cells treated with DMSO were used as control (C). (T) cells treated with Oncrasin-1. Arrows indicate reduced phosphorylation of the polymerase II (pPolII) and SR proteins (pSR) (FIG. 16B) In vitro transcription assay with HeLa cell nuclear extracts (Promoega). The assay was performed following manufacturers instructions. The concentrations used are indicated on the top of the panel. DRB was used as positive control for transcription inhibition.
To further test the role of RNA transcription and splicing in Oncrasin-mediated antitumor activity the phosphorylation of the largest subunit of RNA polymerase II and splicing factors were analyzed. T29, T29Kt1 and H460 cells were treated with Oncrasin-1 at an optimal concentration, around IC60 to IC80 for T29Kt1 and H460 cells. Cell lysates were collected 12 h after the treatment and subjected to Western blot analysis with antibodies specific for phosphorylated RNA polymerase If (H5, Covance Research Products, Inc., Berkeley, Calif.) and SR proteins (1H4, Zymed, obtained from Invitrogen, Carlsbad, Calif.).

O=Cc1cn(Cc2ccc(Cl)cc2)c2ccccc12 [Oncrasin K001, 1H-Indole-3-carboxaldehyde, 1-[(4-chlorophenyl)methyl]-(9CI)]
activation of caspase-3 and caspase-8 (caspase-3 and caspase-8): effectively activated caspase-3 and caspase-8; also recorded: Activation of caspase-3 and caspase-8 was detected; also recorded: effectively induce caspase-3 and caspase-8 activation
susceptibility of stable PKCiota knockdown T29Kt1 cells ([1]; cell viability analysis): almost complete resistance
IC50 in PKCiota knockdown T29Kt1 cells relative to parental T29K cells ([1]; stable knockdown): 100 fold
suppression of TNFα-induced NFκB activation (luciferase) [2]: more active than Sulindac
in vitro RNA transcription [3]: does not inhibit in vitro RNA transcription directly
toxicity to T29 cells (T29 cells; at 33 μM (the highest concentration tested)): not toxic
toxicity to T29 cells (T29 cells; at any of the doses tested (dose response)): not toxic
cytotoxicity in T29 cells (T29 cells; up to 100 μM, the highest concentration tested): no detectable cytotoxicity
